# Test results taken from paper PMC8185074, “Anchor extension: a structure-guided approach to design cyclic peptides targeting enzyme active sites” (Nature Communications, 2021).
# Entries after “also recorded” stand apart in the source; their conditions may differ.
# Key:
# Format in all cases: biochemical
# HDAC11 = biological target: T1, HDAC11 (Homo sapiens, UniProt Q96DB2); experiment: HDAC11 profiling of SHA anchor
# T1 sequence (Q96DB2 1-347): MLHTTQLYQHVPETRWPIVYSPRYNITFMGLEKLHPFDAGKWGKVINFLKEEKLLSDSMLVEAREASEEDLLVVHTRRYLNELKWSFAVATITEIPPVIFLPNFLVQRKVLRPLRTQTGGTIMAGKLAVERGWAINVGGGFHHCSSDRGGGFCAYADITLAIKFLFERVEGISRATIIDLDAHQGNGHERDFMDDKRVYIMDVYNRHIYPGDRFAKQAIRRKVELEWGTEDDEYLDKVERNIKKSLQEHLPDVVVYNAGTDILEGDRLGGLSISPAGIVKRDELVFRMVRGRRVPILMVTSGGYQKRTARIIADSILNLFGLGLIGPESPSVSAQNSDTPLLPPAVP
# HDAC5 = HDAC5 (Homo sapiens, UniProt Q9UQL6); experiment: HDAC5 profiling of SHA anchor and early peptides
# HDAC5, sequence (Q9UQL6 whole entry): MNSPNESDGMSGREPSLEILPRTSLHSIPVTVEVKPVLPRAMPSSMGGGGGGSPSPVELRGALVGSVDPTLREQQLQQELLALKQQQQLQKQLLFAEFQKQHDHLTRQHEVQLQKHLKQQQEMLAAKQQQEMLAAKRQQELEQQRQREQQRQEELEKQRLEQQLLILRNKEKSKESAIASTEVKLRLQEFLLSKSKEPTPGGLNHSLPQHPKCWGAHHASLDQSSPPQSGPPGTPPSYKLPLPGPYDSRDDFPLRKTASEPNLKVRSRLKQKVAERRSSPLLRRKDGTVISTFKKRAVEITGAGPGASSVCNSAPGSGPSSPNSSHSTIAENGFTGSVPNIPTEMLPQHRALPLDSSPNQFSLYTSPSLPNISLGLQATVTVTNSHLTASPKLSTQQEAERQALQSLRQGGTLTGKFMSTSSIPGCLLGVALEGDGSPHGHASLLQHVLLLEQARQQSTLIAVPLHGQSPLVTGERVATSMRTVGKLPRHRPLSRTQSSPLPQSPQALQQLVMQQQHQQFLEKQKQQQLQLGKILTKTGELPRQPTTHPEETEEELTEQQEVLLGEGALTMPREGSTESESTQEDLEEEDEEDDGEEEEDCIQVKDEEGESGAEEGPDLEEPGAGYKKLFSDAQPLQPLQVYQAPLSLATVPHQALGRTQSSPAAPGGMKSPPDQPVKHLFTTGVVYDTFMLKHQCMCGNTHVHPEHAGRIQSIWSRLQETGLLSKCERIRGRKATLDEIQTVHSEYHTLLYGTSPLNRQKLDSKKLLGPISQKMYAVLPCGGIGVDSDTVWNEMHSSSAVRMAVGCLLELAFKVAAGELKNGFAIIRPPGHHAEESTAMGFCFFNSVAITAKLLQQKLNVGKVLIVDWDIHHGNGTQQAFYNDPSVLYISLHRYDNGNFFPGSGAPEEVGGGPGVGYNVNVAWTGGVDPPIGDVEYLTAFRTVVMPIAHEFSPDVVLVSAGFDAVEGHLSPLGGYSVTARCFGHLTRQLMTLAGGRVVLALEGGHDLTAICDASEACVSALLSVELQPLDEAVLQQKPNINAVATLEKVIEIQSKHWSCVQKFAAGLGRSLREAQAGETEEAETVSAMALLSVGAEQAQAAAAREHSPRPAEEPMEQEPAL
# HDAC7 = biological target: T2, HDAC7 (Homo sapiens, UniProt Q8WUI4); experiment: HDAC7 profiling of SHA anchor and early peptides
# T2 sequence (Q8WUI4 1-952): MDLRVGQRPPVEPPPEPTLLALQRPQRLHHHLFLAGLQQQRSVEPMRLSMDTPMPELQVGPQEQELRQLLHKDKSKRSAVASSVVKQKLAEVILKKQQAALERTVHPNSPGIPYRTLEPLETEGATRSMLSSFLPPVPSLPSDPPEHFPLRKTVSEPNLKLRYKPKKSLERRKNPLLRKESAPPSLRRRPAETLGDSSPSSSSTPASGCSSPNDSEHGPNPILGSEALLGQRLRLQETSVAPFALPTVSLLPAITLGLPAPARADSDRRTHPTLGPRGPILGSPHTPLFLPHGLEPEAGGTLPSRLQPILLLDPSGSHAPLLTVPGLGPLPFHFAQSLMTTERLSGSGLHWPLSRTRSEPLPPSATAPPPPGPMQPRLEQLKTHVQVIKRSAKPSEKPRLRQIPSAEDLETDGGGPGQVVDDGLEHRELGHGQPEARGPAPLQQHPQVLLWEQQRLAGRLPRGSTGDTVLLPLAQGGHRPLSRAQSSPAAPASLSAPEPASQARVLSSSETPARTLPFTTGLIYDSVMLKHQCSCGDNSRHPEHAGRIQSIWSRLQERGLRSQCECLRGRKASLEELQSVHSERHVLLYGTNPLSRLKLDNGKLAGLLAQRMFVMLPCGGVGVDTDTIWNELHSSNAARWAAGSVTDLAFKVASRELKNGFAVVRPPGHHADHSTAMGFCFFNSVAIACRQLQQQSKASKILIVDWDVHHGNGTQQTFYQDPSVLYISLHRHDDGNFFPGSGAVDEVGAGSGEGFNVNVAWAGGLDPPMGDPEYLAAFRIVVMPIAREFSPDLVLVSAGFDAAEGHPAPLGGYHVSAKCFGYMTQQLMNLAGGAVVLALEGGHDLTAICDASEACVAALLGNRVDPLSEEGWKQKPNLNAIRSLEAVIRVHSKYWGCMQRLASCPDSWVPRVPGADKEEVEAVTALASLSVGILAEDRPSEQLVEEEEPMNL
smiles,measurement,setting,value
"N[C@@H](CCCCCS)C(=O)O [SHA, 2S-2-amino-7-sulfanylheptanoic acid]",binding to HDAC11,HDAC11,no binding
same,HDAC11 raw activity signal,HDAC11; Conc. 1.00E-05 M,857709
same,HDAC11 raw activity signal,HDAC11; Conc. 1.11E-06 M,1073570
same,HDAC11 raw activity signal,HDAC11; Conc. 1.23E-07 M,1094662
same,HDAC11 raw activity signal,HDAC11; Conc. 1.37E-08 M,1209318
same,HDAC11 raw activity signal,HDAC11; Conc. 1.52E-09 M,1051037
same,HDAC11 raw activity signal,HDAC11; Conc. 3.33E-06 M,847001
same,HDAC11 raw activity signal,HDAC11; Conc. 3.70E-07 M,1077158
same,HDAC11 raw activity signal,HDAC11; Conc. 4.12E-08 M,1064044
same,HDAC11 raw activity signal,HDAC11; Conc. 4.57E-09 M,1134026
same,HDAC11 raw activity signal,HDAC11; Conc. 5.08E-10 M,1061165
same,binding to HDAC5,HDAC5,not detected binding; also recorded: no binding
same,HDAC5 raw activity signal,HDAC5; Conc. 1.00E-05 M,673421
same,HDAC5 raw activity signal,HDAC5; Conc. 1.11E-06 M,815210
same,HDAC5 raw activity signal,HDAC5; Conc. 1.23E-07 M,790981
same,HDAC5 raw activity signal,HDAC5; Conc. 1.37E-08 M,671078
same,HDAC5 raw activity signal,HDAC5; Conc. 1.52E-09 M,600695
same,HDAC5 raw activity signal,HDAC5; Conc. 3.33E-06 M,650638
same,HDAC5 raw activity signal,HDAC5; Conc. 3.70E-07 M,757112
same,HDAC5 raw activity signal,HDAC5; Conc. 4.12E-08 M,716396
same,HDAC5 raw activity signal,HDAC5; Conc. 4.57E-09 M,610467
same,HDAC5 raw activity signal,HDAC5; Conc. 5.08E-10 M,252249
same,binding to HDAC7,HDAC7,not detected binding; also recorded: no binding
same,HDAC7 raw activity signal,HDAC7; Conc. 1.00E-05 M,490633
same,HDAC7 raw activity signal,HDAC7; Conc. 1.11E-06 M,609377
same,HDAC7 raw activity signal,HDAC7; Conc. 1.23E-07 M,577915
same,HDAC7 raw activity signal,HDAC7; Conc. 1.37E-08 M,439997
same,HDAC7 raw activity signal,HDAC7; Conc. 1.52E-09 M,431089
same,HDAC7 raw activity signal,HDAC7; Conc. 3.33E-06 M,551905
same,HDAC7 raw activity signal,HDAC7; Conc. 3.70E-07 M,580293
same,HDAC7 raw activity signal,HDAC7; Conc. 4.12E-08 M,536345
same,HDAC7 raw activity signal,HDAC7; Conc. 4.57E-09 M,413084
same,HDAC7 raw activity signal,HDAC7; Conc. 5.08E-10 M,366480
